Results reported in patent US20260083864A1, “CONTRAST AGENTS FOR USE IN DIAGNOSTIC COMPUTED TOMOGRAPHY IMAGING” (Bayer Aktiengesellschaft, priority 2022, published 2026).

How the values were obtained:
[1] = Water solubility in aqueous buffer; settings: aqueous buffer 10 mM Tris-HCl, pH 7.4, 20° C.
Description: The solid compounds were added stepwise to the buffer solution. More substance is added once all the suspended material is dissolved until an equilibrium between undissolved and dissolved substance is reached. The suspension was mixed using a shaker (Heidolph Reax 2000) and treated 5 min in an ultrasound bath (Bandelin, Sonorex Super RK255H).

[2] = Complex stability (transmetallation) against Zn2+ in phosphate buffer; settings: 72 hours, 2.5 mM Zn^2+, 26 mM phosphate buffer, 37° C., pH 7.4
Text: If test compounds are instable under these conditions, transmetallation during this test would lead to the formation of the Zn^2+ complex of the test item, while Gd^3+ is released and precipitated as highly insoluble GdPO4.

[3] = Relaxivity measurements at 1.41 T in water; assay type: physicochemical; settings: 37° C., normalized to Gd
In short: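 T1 by inversion recovery and T2 by CPMG at 1.41 T (60 MHz), 37° C, relaxation delay ≥5×T1. Three Gd concentrations between 0.05 and 2 mM; relaxivities derived from measured relaxation rates in water.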

[4] = Relaxivity measurements at 1.41 T in human plasma; assay type: physicochemical; settings: 37° C., normalized to Gd
In short: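 T1 determined by inversion recovery (8 inversion-time steps) and T2 by CPMG sequence, both with relaxation delay ≥5×T1. Each relaxivity used three Gd concentrations between 0.05 and 2 mM. Relaxivities were derived from relaxation rates measured in water and plasma.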

[5] = biological target: T1, OATP1B1 (Homo sapiens, UniProt Q9Y6L6); assay: Uptake into stable transfected OATP1B1 HEK 293 cells; assay type: cell-based; settings: for Uptake into OATP1B1-HEK 293 cells: 40 min incubation, relative to RC1 (Gd-EOB-DTPA); for Inhibition Rifampicine: uptake into OATP1B1-HEK 293 cells
T1 sequence (Q9Y6L6 1-691): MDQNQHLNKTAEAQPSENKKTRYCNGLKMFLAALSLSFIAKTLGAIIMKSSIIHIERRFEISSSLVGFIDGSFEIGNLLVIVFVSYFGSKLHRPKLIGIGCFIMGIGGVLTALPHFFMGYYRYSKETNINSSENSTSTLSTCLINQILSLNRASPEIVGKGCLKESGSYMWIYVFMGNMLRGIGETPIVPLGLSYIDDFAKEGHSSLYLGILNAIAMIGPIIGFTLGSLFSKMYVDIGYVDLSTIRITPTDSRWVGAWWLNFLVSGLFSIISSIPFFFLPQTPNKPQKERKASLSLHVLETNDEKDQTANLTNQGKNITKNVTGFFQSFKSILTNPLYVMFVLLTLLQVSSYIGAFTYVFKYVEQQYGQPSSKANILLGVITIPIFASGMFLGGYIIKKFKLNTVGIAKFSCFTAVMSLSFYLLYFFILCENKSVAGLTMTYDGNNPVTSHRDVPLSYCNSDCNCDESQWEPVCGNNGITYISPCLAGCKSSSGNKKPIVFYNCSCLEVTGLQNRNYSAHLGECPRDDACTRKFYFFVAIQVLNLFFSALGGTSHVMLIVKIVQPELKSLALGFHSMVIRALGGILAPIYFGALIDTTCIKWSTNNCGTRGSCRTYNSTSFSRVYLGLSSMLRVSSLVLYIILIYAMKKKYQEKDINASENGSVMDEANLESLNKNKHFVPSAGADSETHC
In short: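 Uptake measured in triplicate after a 40 min, unshaken exposure of OATP1B1-expressing HEK293 cells to 100 µM (final) compound in transport buffer. Cold PBS wash stopped uptake; Gd-EOB-DTPA served as reference standard within each plate.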

[6] = biological target: T2, OATP1B3 (Homo sapiens, UniProt Q9NPD5); assay: Uptake into stable transfected OATP1B3 HEK 293 cells; assay type: cell-based; settings: for Uptake into OATP1B3-HEK 293 cells: 40 min incubation, relative to RC1 (Gd-EOB-DTPA); for Inhibition Rifampicine: uptake into OATP1B3-HEK 293 cells
T2 sequence (Q9NPD5 1-702): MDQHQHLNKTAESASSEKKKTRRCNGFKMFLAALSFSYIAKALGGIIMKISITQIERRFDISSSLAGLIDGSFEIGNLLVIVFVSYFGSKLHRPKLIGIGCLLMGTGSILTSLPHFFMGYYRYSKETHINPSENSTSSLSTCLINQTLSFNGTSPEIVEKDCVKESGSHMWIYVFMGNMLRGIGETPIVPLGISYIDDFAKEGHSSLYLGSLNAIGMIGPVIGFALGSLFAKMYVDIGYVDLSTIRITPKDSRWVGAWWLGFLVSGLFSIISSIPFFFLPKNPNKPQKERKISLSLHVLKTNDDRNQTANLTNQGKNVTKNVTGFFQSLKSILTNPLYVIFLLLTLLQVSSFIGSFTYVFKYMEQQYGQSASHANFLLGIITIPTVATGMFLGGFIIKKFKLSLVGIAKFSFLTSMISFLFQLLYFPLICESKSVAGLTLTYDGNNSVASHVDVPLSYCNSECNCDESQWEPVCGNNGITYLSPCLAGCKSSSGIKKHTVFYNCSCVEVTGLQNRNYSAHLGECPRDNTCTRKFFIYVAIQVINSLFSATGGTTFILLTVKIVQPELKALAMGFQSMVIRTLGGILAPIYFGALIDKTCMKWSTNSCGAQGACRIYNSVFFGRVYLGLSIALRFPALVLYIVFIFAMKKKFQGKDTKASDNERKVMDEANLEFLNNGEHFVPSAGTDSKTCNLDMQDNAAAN
In short: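 HEK 293 cells stably transfected with human OATP1B3 were incubated for 40 min with test items at 100 μM final in transport buffer, in triplicate, then washed with cold PBS. Gadoxetate (Gd-EOB-DTPA) served as the reference standard on the same plate.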

[7] = Partition coefficient (log P butanol/buffer); assay type: physicochemical; settings: 1-butanol / 50 mM Tris-HCl, pH 7.4, room temperature
[8] = system: freshly isolated rat hepatocytes; assay: Uptake into freshly isolated rat hepatocytes; settings: for Uptake rat hepatocytes: 100 μmol Gd/L, 10 min, 37° C., relative to RC1 (Gd-EOB-DTPA); for Inhibition Rifampicine: rat hepatocyte uptake, test item and Rifampicine 1:1, each 100 μM
Description: After incubation the adherent hepatocytes were washed once with 37° C. Hepes carbonate transport buffer (500 μL/well). The test items and RC1 were prepared from stock solutions (180 to 500 mM concentration) in Hepes carbonate transport buffer at pH 7.4 to reach a final concentration of 100 μmol Gd/L. The specific uptake of the test item or RC1 into rat hepatocytes via OATP1B1 and OATP1B3 was challenged using a known OATP1B1/1B3 inhibitor (Rifampicine, Fa. Sigma R3501, test item and inhibitor 1:1 each 100 μM final concentration). The prepared rat hepatocyte plates were incubated with test solutions (500 μL/well) at 37° C. for 10 min using a thermoshaker (Fa. Grant Bio, PHMP). Triplicates were performed for each test item. After incubating the cells were washed once with cold PBS buffer (Fa. Gibco, Dulbeccos PBS (+)). After washing the intact hepatocytes were lysed by addition of 500 μL cold 0.01% Triton-X 100 in Millipore water for 1 h. […] As a reference standard RC1 is used in the same well plate. The hepatocyte uptake of the test compound is calculated relative to RC1 (resulting in the unit % of RC1).

| SMILES | Solubility [1] [mM] | Transmetallation stability [2] [%] | r1 water [3] [L/mmol/s] | r1 human plasma [4] [L/mmol/s] | Uptake into OATP1B1-HEK 293 cells [5] | Inhibition Rifampicine [5] [% inhibition] | Uptake into OATP1B3-HEK 293 cells [6] | Inhibition Rifampicine [6] [% inhibition] | Log P (partition coefficient butanol/buffer) [7] | Uptake rat hepatocytes [8] | Inhibition Rifampicine [8] [% inhibition] |
| --- | --- | --- | --- | --- | --- | --- | --- | --- | --- | --- | --- |
| CCOCCOCCOc1ccc(CCC[C@@H](C(=O)O)N2CCN(CC(=O)[O-])CCN(CC(=O)[O-])CCN(CC(=O)[O-])CC2)cc1.[Gd+3] [Example 26, gadolinium 2,2′,2″-{10-[(1S)-1-carboxy-4-{4-[2-(2-ethoxyethoxy)ethoxy]phenyl}butyl]-1,4,7,10-tetraazacyclododecane-1,4,7-triyl}triacetate] | >62 | 99 | 4.5 | 7.5 | 386 % of RC1 | 73 | 64 % of RC1 | 93 | −1.01 | 77 % of RC1 | 97 |
| CCOCCOc1ccc(CC(C(=O)O)N2CCN(CC(=O)[O-])CCN(C(CC)C(=O)[O-])CCN(CC(=O)[O-])CC2)cc1.[Gd+3] (single isomer, unassigned) [Example 7, gadolinium 2-[7-{1-carboxy-2-[4-(2-ethoxyethoxy)phenyl]ethyl}-4,10-bis(carboxylatomethyl)-1,4,7,10-tetraazacyclododecan-1-yl]butanoate] | >243 | 101 | 4.5 | 7.4 | 217 % of RC1 | 91 | 76 % of RC1 | 99 | −1.09 | 89 % of RC1 | 99 |
| CCOCCOCCOc1ccc(CC(C(=O)O)N2CCN(C(CO)C(=O)[O-])CCN(C(CO)C(=O)[O-])CCN(C(CO)C(=O)[O-])CC2)cc1.[Gd+3] (stereo not drawn) [Example 22, gadolinium 2,2′,2″-{10-[1-carboxy-2-{4-[2-(2-ethoxyethoxy)ethoxy]phenyl}ethyl]-1,4,7,10-tetraazacyclododecane-1,4,7-triyl}tris(3-hydroxypropanoate)] | >308 | 96 | 5.4 | 7.7 | 77 % of RC1 | 51 | 46 % of RC1 | 96 |  | 41 % of RC1 | 83 |
| CCOCCOCCOc1ccc(CCCC(C(=O)O)N2CCN(C(CO)C(=O)[O-])CCN(C(CO)C(=O)[O-])CCN(C(CO)C(=O)[O-])CC2)cc1.[Gd+3] (stereo not drawn) [Example 17, gadolinium-2,2′,2″-{10-[1-carboxy-4-{4-[2-(2-ethoxyethoxy)ethoxy]phenyl}butyl]-1,4,7,10-tetraazacyclododecane-1,4,7-triyl}tris(3-hydroxypropanoate)] | >217 | 98 | 5.3 | 10.1 |  | 88 |  | 98 |  | 71 % of RC1 | 91 |
| CCCOc1ccc(CC(C(=O)O)N2CCN(CC(=O)[O-])CCN(CC(=O)[O-])CCN(CC(=O)[O-])CC2)cc1.[Gd+3] (stereo not drawn) [Example 48, gadolinium 2,2′,2″-{10-[1-carboxy-2-(4-propoxyphenyl)ethyl]-1,4,7,10-tetraazacyclododecane-1,4,7-triyl}triacetate] | 16 | 99 | 4.0 | 9.3 | 240 % of RC1 | 92 | 11 % of RC1 | 81 |  | 77 % of RC1 | 98 |
| CCOCCOCCOc1ccc(CC(C(=O)O)N2CCN(CC(=O)[O-])CCN(C(C)C(=O)[O-])CCN(CC(=O)[O-])CC2)cc1.[Gd+3] (single isomer, unassigned) [Example 6, gadolinium 2-[7-(1-carboxy-2-{4-[2-(2-ethoxyethoxy)ethoxy]phenyl}ethyl)-4,10-bis(carboxylatomethyl)-1,4,7,10-tetraazacyclododecan-1-yl]propanoate] | >217 | 102 | 4.3 | 6.6 |  |  |  |  | −1.44 | 62 % of RC1 | 96 |
| CCOCCOCCOc1cc(CC(C(=O)O)N2CCN(CC(=O)[O-])CCN(CC(=O)[O-])CCN(CC(=O)[O-])CC2)cc(OCCOCCOCC)c1.[Gd+3] (stereo not drawn) [Example 39, gadolinium 2,2′,2″-{10-[2-{3,5-bis[2-(2-ethoxyethoxy)ethoxy]phenyl}-1-carboxyethyl]-1,4,7,10-tetraazacyclododecane-1,4,7-triyl}triacetate] | >255 |  | 4.8 | 7.8 | 59 % of RC1 | 12 | 26 % of RC1 | 88 | −1.32 | 17 % of RC1 | 64 |
| CCOCCOCCOc1ccc(CC(C(=O)O)N2CCN(CC(=O)[O-])CCN(CC(=O)[O-])CCN(CC(=O)[O-])CC2)nc1.[Gd+3] (stereo not drawn) [Example 23, gadolinium 2,2′,2″-{10-[1-carboxy-2-{5-[2-(2-ethoxyethoxy)ethoxy]pyridin-2-yl}ethyl]-1,4,7,10-tetraazacyclododecane-1,4,7-triyl}triacetate] | >241 |  | 4.5 | 6.0 |  | 0 |  | 71 | −1.94 | 17 % of RC1 | 73 |
